{
  "source": "patent US20140193831A1",
  "about": "“SEED TRAIT PREDICTION BY ACTIVITY-BASED PROTEIN PROFILING” (GAUTIER SEMENCES, priority 2011, published 2014)",
  "key": {"[1]": {"test_system": "seed proteins", "assay": "ABPP labelling of a tomato seed extract with four fluorescent probes in parallel (FIG. 2)", "format": "biochemical", "conditions": "plant seed extract, 2 μM probe, buffers NaOAc pH 5.5 or Tris pH 7.6 with 1 mM DTT"}, "[2]": {"test_system": "diagnostic marker 4", "assay": "Single seed-ABPP of unprimed and primed tomato seeds with MV151 (FIG. 17)", "format": "biochemical", "conditions": "4 hours, Tris pH 7.5", "source_text": "A: Structure of MV151 (see also FIG. 7). This probe consists of a vinylsulfonate (VS) reactive groups, a leucine tripeptide binding group as linker, and a fluorescence bodipy reporter tag (left grey circle) (MV151: Verdoes et al., (2006) Chem. Biol. 13: 1217-1226). B: MV151 was used for detection of a diagnostic marker for primed seeds in tomato. […] Proteins were separated on 14% protein gels and analyzed by scanning for fluorescent proteins (ex 532 nm/em 575 nm) and stained with coomassie. […] This is an Example of successful identification of primed seeds by ABPP of the present invention without need for germination of the seeds."}},
  "data": [
    {"smiles": "COc1ccc(C2=[N+]3C(=Cc4c(C)c(CCC(=O)NCCCCCC(=O)NCCCCCC(=O)NCCCCCC(=O)N[C@@H](CC(C)C)C(=O)N[C@@H](CC(C)C)C(=O)N[C@H](/C=C/S(C)(=O)=O)CC(C)C)c(C)n4[B-]3(F)F)C=C2)cc1", "note": "[MV151]", "values": [
      {"measurement": "labelling of seed proteins on fluorescence gel", "setting": "[1]", "result": "Robust labelling"},
      {"measurement": "seeds in which diagnostic marker 4 is detected", "setting": "[2]; primed A1 seeds, 14 of 14, 2 μM probe", "result": 100, "unit": "%"},
      {"measurement": "seeds in which diagnostic marker 4 is detected", "setting": "[2]; unprimed A1 seeds, 4 of 14, 2 μM probe", "result": 36, "unit": "%"}
    ]}
  ]
}
